For one test, the system named is bovine serum albumin. Put plainly: suppression of generation of reactive oxygen species in the presence of metal ion (oxidation of bovine serum albumin in Fenton reaction). Format: biochemical. The following applies: 1 mM test substance, 10 μM copper ion, 20 mM hydrogen peroxide, 4 mg/ml BSA. How it is done:
The activity for suppressing the generation of reactive oxygen species in the presence of metal ion was evaluated by measuring the effect for suppressing the oxidation of bovine serum albumin by hydroxyl radical in the Fenton reaction system. That is to say, hydroxyl radical was first produced by divalent copper ion and hydrogen peroxide (Fenton reaction). Bovine serum albumin was oxidized by the hydroxyl radical, and thus carbonyl was produced. The carbonyl was reacted with 2,4-dinitrophenylhydrazine, and determined by measuring the absorbance at 365 nm. […] The ratio of decreases of absorbance was expressed as the activity for suppressing the generation of reactive oxygen species in the presence of metal ion.

The next test concerns gastric ulcer. Nature of the test: anti-ulcer test against indomethacin-induced gastric ulcer. The following applies: for Length of ulcer: 30 minutes before indomethacin (50 mg/kg s.c.), control 47.75 ± 6.08; for Suppression rate: indomethacin ulcer, vs. control. The test is classed as in vivo, Wistar/ST male rats. How it is done: Ulcer was induced in Wistar/ST male rats having a weight of about 200 g (6 week-old) by indomethacin as a gastric ulcer inducing agent, and the anti-ulcer effects of the test samples were examined in the following six groups to which test samples were administered.
Each group comprises six rats.
______________________________________
Group 1: (control) physiological saline
Group 2: (comparative) cetraxate hydrochloride
Group 3: (the present invention) garcinol
Group 4: (the present invention) garcinol
Group 5: (the present invention) garcinol
Group 6: (the present invention) isogarcinol
In this connection, physiological saline containing 1% sodium carboxymethylcellulose was used as the control, and cetraxate hydrochloride (trade name "Neuer®S", Daiichi Pharmaceuticals Co., Ltd.) which is clinically used as an anti-ulcer agent was used as the comparative sample. The cetraxate hydrochloride insoluble in water was ground into fine powder with a mortar and a pestle and used as a suspension in a 1% sodium carboxymethylcellulose solution. Also, garcinol and isogarcinol in the form of fine powder were used as the suspensions in a 1% sodium carboxymethylcellulose solution in the concentrations which are the doses in the groups. In this connection, garcinol and isogarcinol used in the section of the present invention were those obtained in Referential Examples 1 and 2, respectively.
Experiment was carried out according to the method described by Yamahara et al. (see […] ZASSHI, 114, 401, 1994) which had been slightly modified. That is to say, indomethacin (50 mg/kg) was suspended in 1% sodium carboxymethylcellulose containing 0.1% Tween 20 (Sigma) and injected subcutaneously into the back of 24 hour fasted rats in an amount of 1 ml/rat. The samples in the six sections were orally administered at 30 minutes before administration of indomethacin. After 7 hours from the administration of indomethacin, rats were bleeded to death under anesthetization with nembutal, and stomach was isolated. A phosphate buffer (10 ml) containing 10% formalin was injected into the stomach, which was cut open after 10 minutes, and the length of lesion caused in the glandular stomach portion was defined as the lesion index, which was measured in the mm unit to evaluate the anti-ulcer effect. The suppression rate (%) in Table 1 means the value in which the difference of the length (mm) of ulcer in each group subtracted from the average length, 47.75 (mm) of ulcer in the control was divided with the average length, 47.75 (mm) of ulcer in the control. The larger the value, the stronger the anti-ulcer activity.

The subject of test [1] is Epstein-Barr virus early antigen (EBV-EA). Put plainly: EBV-EA induction inhibiting test (tumor promotion inhibition). The following applies: Homo sapiens, Raji; 8 μg/ml; 3 mM n-butyric acid, 50 nM TPA, 37° C., 48 hours; read-out: suppression of the induction of EBV-EA. Format: cell-based, human lymphoblasts (Raji). As to the method:
The effect of inhibiting the tumor promotion was evaluated as follows mainly according to the EBV-EA induction inhibiting test described by Y. Ito et al.
The EBV potentially infected human lymphoblasts (Raji) were first prepared in a concentration of 5×10^5 cell/ml, and cultured in an RPMI-1640 medium to which 3 mM n-butyric acid (inducer) and 50 nM TPA (12-O-tetradecanoylphorbol-13-acetate) (promoter) were added in an atmosphere of 5% carbon dioxide and 95% air under at a temperature of 37° C. for 48 hours. The cells in which EBV-EA had been induced were detected microscopically by indirect immunofluorescence with the serum of a nasopharyngeal carcinoma (NPC) patient. In this system, various concentrations (8 μg/ml, 40 μg/ml, and 200 μg/ml) of the test substance (garcinol sample shown in Referential Example 1) dissolved in DMSO (dimethylsolfoxide) were added together with the promoter to the cells. The activity of suppressing the induction of the Epstein-Barr virus early antigen was defined as the decreasing rate of the cells in which EBV-EA had been induced.

Test [2] is described as follows: anti-oxidation activity (linoleic acid/β-carotene emulsion, autoxidation). The settings on record: 0.0005% test substance, pH 7.0, 25° C., 460 nm; lesser ratio = stronger. As to the method: The anti-oxidation activities was evaluated according to the method by A. Ben Aziz et al. […] That is to say, an emulsion of linoleic acid and β-carotene was first prepared with Tween 20 (Sigma) and adjusted to pH 7.0 with 0.1 M trishydroxyaminomethane-hydrochloride. […] During the reaction, the color degradation of β-carotene in association with the autoxidation of linoleic acid was measured with the passage of time as the decreased value of the optical density at 460 nm with a spectrophotometer. […] The antioxidant activity was measured as a ratio of the decreasing rate of absorbance in the presence of the substance to be tested to the decreasing rate of absorbance in the absence of the antioxidant.

In the case of `C=C(C)[C@@H](CC=C(C)C)C[C@@]12C[C@@H](CC=C(C)C)C(C)(C)[C@@](CC=C(C)C)(C(=O)C(C(=O)c3ccc(O)c(O)c3)=C1O)C2=O` [garcinol], the “ratio for suppressing the oxidation of bovine serum albumin” value in the test on bovine serum albumin turned out to be 55%. Also, the values for the Length of ulcer with gastric ulcer (50 mg/kg oral), in the test on gastric ulcer (100 mg/kg oral) and in the test on gastric ulcer (200 mg/kg oral) were 5.75 ± 6.13 mm, 4.00 ± 4.32 mm and 3.00 ± 5.35 mm, respectively. Also, the Suppression rate in the test on gastric ulcer (50 mg/kg oral) stood at 88.0%; with gastric ulcer (100 mg/kg oral), 91.6%; in the test with gastric ulcer (200 mg/kg oral), 93.7%. Besides, in test [1], the inhibition at 8 µg/mL was found to be 58.2%. In test [2], the “antioxidant activity (ratio of the decreasing rate of absorbance with to without test substance)” value came out at 0.50.

These data come from patent US5972357A, “Healthy foods and cosmetics” (Kikkoman Corporation, priority 1996, dated 1999).
